# Measurements taken from patent US20230124862A1, “BISMUTH THIOL COMPOUNDS AND COMPOSITIONS AND METHODS OF TREATING MICROBIAL CO-INFECTIONS” (Microbion Corporation, priority 2020, published 2023).
# Where two headings read alike, the source gives them in different places.
# What was measured:
# [1] = test system: P. aeruginosa; assay: Checkerboard FIC/FICI assay; type: cell-based, Pseudomonas aeruginosa; settings: during FIC testing
# [2] = test system: P. aeruginosa; settings: P. aeruginosa isolate 103; CLSI QC range in parenthesis; cited from earlier work
# [3] = test system: P. aeruginosa; settings: P. aeruginosa isolate 103; CLSI QC range in parenthesis; cited from earlier work; remark: listed apart in the source
# [4] = test system: Burkholderia cepacia complex; assay: Checkerboard FIC/FICI assay; type: cell-based, Burkholderia spp.; settings: during FIC testing
# [5] = test system: Burkholderia cepacia complex; type: cell-based, Burkholderia spp.; settings: initial MIC testing
# [6] = test system: P. aeruginosa; assay: Broth microdilution MIC (Example 10); type: cell-based, Pseudomonas aeruginosa; settings: initial MIC testing
# [7] = test system: Pseudomonas aeruginosa; settings: P. aeruginosa ATCC 27853; CLSI established QC range; cited from earlier work
# [8] = test system: Escherichia coli; assay: Broth microdilution MIC (Example 12); type: cell-based
# [9] = test system: P. aeruginosa and A. baumannii; settings: P. aeruginosa (MMX 103), QC; cited from earlier work
# [10] = test system: Enterobacteriaceae; settings: E. coli (MMX 102), QC; cited from earlier work
# [11] = test system: Escherichia coli; settings: E. coli ATCC 25922; CLSI established QC range; cited from earlier work
# [12] = test system: Acinetobacter baumannii; assay: Broth microdilution MIC (Example 12); type: cell-based
# [13] = test system: Klebsiella pneumoniae; assay: Broth microdilution MIC (Example 12); type: cell-based
# [14] = test system: Gram-positive aerobic bacteria (S. aureus, MRSA, CA-MRSA); assay: MIC90 against 150 clinical isolates of Gram-positive aerobic bacteria; type: cell-based; settings: S. aureus (50 isolates)
# [15] = test system: Enterobacteriaceae; assay: Broth microdilution MIC (Example 11); type: cell-based, E. coli, K. pneumoniae, Enterobacter cloacae
# [16] = test system: Pseudomonas aeruginosa; assay: Broth microdilution MIC (Example 12); type: cell-based
smiles,measurement,setting,value
NC[C@H]1O[C@H](O[C@H]2[C@H](O)[C@@H](O[C@H]3O[C@H](CO)[C@@H](O)[C@H](N)[C@H]3O)[C@H](N)C[C@@H]2N)[C@H](N)C[C@@H]1O [TOB],MIC,"[1]; isolate 103 (ATCC 25922), each agent tested alone for QC, one replicate",1 µg/mL
same,MIC,[1]; isolate 6322,128 µg/mL
same,MIC,[1]; isolate 6977,128 µg/mL
same,MIC,[1]; isolate 7745,0.5 µg/mL
same,MIC,[1]; isolate 8798,16 µg/mL
same,MIC,[1]; isolate 9108,0.5 µg/mL
same,CLSI QC range of MIC,[2],(0.25-1) μg/mL
same,CLSI QC range of MIC,[3],(0.25-1) μg/mL
same,MIC,[4]; B. cenocepacia isolate 0548,32 µg/mL
same,MIC,[4]; B. cenocepacia isolate 0813,256 µg/mL
same,MIC,[4]; B. cepacia isolate 0546,32 µg/mL
same,MIC,[4]; B. cepacia isolate 1793,16 µg/mL
same,MIC,[5]; B. cenocepacia isolate 0548 (CIP-R),64 µg/mL
same,MIC,[5]; B. cenocepacia isolate 0813 (CPI-I),256 µg/mL
same,MIC,[5]; B. cepacia isolate 0546,64 µg/mL
same,MIC,[5]; B. cepacia isolate 1793,64 µg/mL
same,MIC,[5]; B. cepacia isolate 1794,64 µg/mL
same,MIC,[5]; B. cepacia isolate 9040,8 µg/mL
same,MIC,[5]; B. multivorans isolate 1791,64 µg/mL
same,MIC,[5]; B. multivorans isolate 5665 (CIP-I),64 µg/mL
same,MIC,[5]; B. multivorans isolate 8952 (CIP-I),16 µg/mL
same,MIC,"[6]; P. aeruginosa isolate 103, QC strain",1 µg/mL
same,MIC,"[6]; P. aeruginosa isolate 1497 (TOB-R AMK-R, CIP-I, AZT-R, COL-R)",16 µg/mL
same,MIC,"[6]; P. aeruginosa isolate 1530 (TOB-R, AMK-R, CIP-R)",32 µg/mL
same,MIC,"[6]; P. aeruginosa isolate 1553 (TOB-R, AMK-R, CIP-R)",>256 µg/mL
same,MIC,"[6]; P. aeruginosa isolate 6322 (MEM-R, TOB-R, AMK-R, CIP-R, AZT-R)",128 µg/mL
same,MIC,"[6]; P. aeruginosa isolate 6977 (MEM-I, TOB-R, CIP-R, AZT-I)",128 µg/mL
same,MIC,"[6]; P. aeruginosa isolate 7745 (MEM-R, CIP-R, AZT-R)",0.5 µg/mL
same,MIC,"[6]; P. aeruginosa isolate 7754 (MEM-R, TOB-R, CIP-R, AZT-I)",32 µg/mL
same,MIC,"[6]; P. aeruginosa isolate 7762 (MEM-I, CIP-I)",1 µg/mL
same,MIC,"[6]; P. aeruginosa isolate 7871 (MEM-R, AZT-I)",0.5 µg/mL
same,MIC,[6]; P. aeruginosa isolate 7874,0.5 µg/mL
same,MIC,"[6]; P. aeruginosa isolate 7886 (MEM-R, CIP-R, AZT-R)",1 µg/mL
same,MIC,"[6]; P. aeruginosa isolate 8797 (MEM-R, TOB-R, AMK-R, CIP-R, AZT-R, COL-R)",>256 µg/mL
same,MIC,"[6]; P. aeruginosa isolate 8798 (MEM-R, TOB-R, AMK-R, CIP-R, AZT-R, COL-R)",32 µg/mL
same,MIC,"[6]; P. aeruginosa isolate 9108 (CIP-R, AZT-I)",0.5 µg/mL
CC(C)(O/N=C(\C(=O)N[C@@H]1C(=O)N2C(C(=O)[O-])=C(C[n+]3ccccc3)CS[C@H]12)c1csc(N)n1)C(=O)O [CAZ],QC range of MIC,[7],(1-4) μg/mL
same,MIC,"[8]; E. coli ATCC 25922, ATCC QC organism (Table 102)",0.25 µg/mL
same,MIC,"[8]; E. coli ATCC 35218, ATCC QC organism (Table 102)",0.12 µg/mL
same,MIC,"[8]; E. coli ATCC 35218, ESBL",0.12 µg/mL
same,MIC,"[8]; E. coli ATCC BAA-2471, NDM",>64 µg/mL
same,MIC,"[8]; E. coli CDC 114, ESBL/KPC",>64 µg/mL
same,MIC,"[8]; E. coli CDC 118, ESBL/NDM",>64 µg/mL
same,MIC,"[8]; E. coli CDC 435, NDM",>64 µg/mL
same,MIC,"[8]; E. coli CDC 451, KPC",64 µg/mL
same,MIC,"[8]; E. coli CDC 503, ESBL/NDM",>64 µg/mL
same,MIC,"[8]; E. coli MMX 5745, KPC",32 µg/mL
same,MIC,"[8]; E. coli MMX 5755, ESBL",>64 µg/mL
same,MIC,"[8]; E. coli MMX 5756, ESBL",>64 µg/mL
same,MIC,"[8]; E. coli MMX 5758, ESBL",16 µg/mL
same,CLSI Quality Control Range (MIC),[9],(1.4)
same,CLSI Quality Control Range (MIC),[10],(0.06-0.5) μg/mL
same,QC range of MIC,[11],(0.06-0.5) μg/mL
same,MIC,"[12]; A. baumannii CDC 273, ESBL/OXA",64 µg/mL
same,MIC,"[12]; A. baumannii CDC 274, ESBL/OXA",>64 µg/mL
same,MIC,"[12]; A. baumannii CDC 275, ESBL/OXA",>64 µg/mL
same,MIC,"[12]; A. baumannii CDC 277, ESBL/OXA",>64 µg/mL
same,MIC,"[12]; A. baumannii CDC 284, ESBL/OXA",64 µg/mL
same,MIC,"[12]; A. baumannii CDC 307, OXA",64 µg/mL
same,MIC,"[12]; A. baumannii CDC 308, ESBL/OXA",64 µg/mL
same,MIC,"[12]; A. baumannii CDC 311, OXA",>64 µg/mL
same,MIC,"[12]; A. baumannii CDC 312, OXA",>64 µg/mL
same,MIC,"[12]; A. baumannii CDC 313, ESBL/OXA",>64 µg/mL
same,MIC,"[12]; A. baumannii NCTC 13304, OXA",>64 µg/mL
same,MIC,"[13]; K. pneumoniae ATCC BAA-1705, ATCC QC organism (Table 102)",>64 µg/mL
same,MIC,"[13]; K. pneumoniae ATCC BAA-1705, ESBL/KPC",>64 µg/mL
same,MIC,"[13]; K. pneumoniae CDC 112, KPC",>64 µg/mL
same,MIC,"[13]; K. pneumoniae CDC 113, ESBL/KPC",>64 µg/mL
same,MIC,"[13]; K. pneumoniae CDC 115, ESBL/KPC",>64 µg/mL
same,MIC,"[13]; K. pneumoniae CDC 120, ESBL/KPC",>64 µg/mL
same,MIC,"[13]; K. pneumoniae CDC 126, ESBL/KPC",4 µg/mL
same,MIC,"[13]; K. pneumoniae CDC 129, ESBL/KPC",>64 µg/mL
same,MIC,"[13]; K. pneumoniae CDC 135, ESBL/VIM",>64 µg/mL
same,MIC,"[13]; K. pneumoniae CDC 138, ESBL/NDM",>64 µg/mL
same,MIC,"[13]; K. pneumoniae CDC 158, ESBL/NDM/OXA",>64 µg/mL
same,MIC,"[13]; K. pneumoniae MMX 9029, ESBL",4 µg/mL
same,MIC90,[14]; CA-MRSA,>64 µg/mL
same,MIC90,[14]; MRSA,>64 µg/mL
same,MIC90,[14]; MSSA,16 µg/mL
same,MIC,"[15]; E. cloacae (MMX 5981), NDM-1, LVX-R, MEM-R, CAZ-R, GEN-R",>32 µg/mL
same,MIC,"[15]; E. coli (MMX 102), QC",0.12 µg/mL
same,MIC,"[15]; E. coli (MMX 5980), NDM-1, LVX-R, MEM-R, CAZ-R, GEN-R",>32 µg/mL
same,MIC,"[15]; E. coli (MMX 8423), ESBL, LVX-R, CAZ-R, GEN-R",32 µg/mL
same,MIC,"[15]; E. coli (MMX 8424), ESBL, CAZ-R",16 µg/mL
same,MIC,"[15]; E. coli (MMX 8425), ESBL, LVX-R, CAZ-R, GEN-R",16 µg/mL
same,MIC,"[15]; K. pneumoniae (MMX 4622), KPC-2, MEM-R, CAZ-R",>32 µg/mL
same,MIC,"[15]; K. pneumoniae (MMX 4623), KPC-2, MEM-R, CAZ-R, GEN-R",>32 µg/mL
same,MIC,"[15]; K. pneumoniae (MMX 4653), KPC-3, LVX-R, MEM-R, CAZ-R",>32 µg/mL
same,MIC,"[15]; K. pneumoniae (MMX 4683), KPC-2, LVX-R, MEM-R, CAZ-R",>32 µg/mL
same,MIC,"[15]; K. pneumoniae (MMX 4684), ESBL, MEM-R",8 µg/mL
same,MIC,"[15]; K. pneumoniae (MMX 4685), ESBL, LVX-R, MEM-R, CAZ-R",>32 µg/mL
same,MIC,"[15]; K. pneumoniae (MMX 4694), KPC-3, LVX-R, MEM-R, CAZ-R",>32 µg/mL
same,MIC,"[15]; K. pneumoniae (MMX 5979), NDM-1, LVX-R, MEM-R, CAZ-R, GEN-R",>32 µg/mL
same,MIC,"[16]; P. aeruginosa ATCC 27853, ATCC QC organism (Table 102)",2 µg/mL
same,MIC,"[16]; P. aeruginosa CDC 230, VIM/OXA",64 µg/mL
same,MIC,"[16]; P. aeruginosa CDC 231, KPC/OXA",>64 µg/mL
same,MIC,"[16]; P. aeruginosa CDC 241, IMP/OXA",>64 µg/mL
same,MIC,"[16]; P. aeruginosa CDC 246, NDM/OXA",>64 µg/mL
same,MIC,"[16]; P. aeruginosa CDC 250, NDM/OXA",>64 µg/mL
same,MIC,"[16]; P. aeruginosa CDC 356, KPC",64 µg/mL
same,MIC,"[16]; P. aeruginosa CDC 439, IMP",>64 µg/mL
same,MIC,"[16]; P. aeruginosa CDC 444, VIM",32 µg/mL
same,MIC,"[16]; P. aeruginosa CDC 457, VIM",>64 µg/mL
same,MIC,"[16]; P. aeruginosa CDC 516, KPC/AmpC",64 µg/mL
same,MIC,"[16]; P. aeruginosa CDC 518, KPC/AmpC",32 µg/mL
